Test results taken from paper PMC4051630, “A Comparison of Protein Kinases Inhibitor Screening Methods Using Both Enzymatic Activity and Binding Affinity Determination” (PLoS ONE, 2014).

Key:
Experiment in all cases: Differential Scanning Fluorimetry (DSF) Tm shift
Assay type in all cases: binding
[1] = biological target: T1, FAK2 Catalytic Domain (Homo sapiens, UniProt Q14289); details: 2 µM protein, 10 µM inhibitor, average of 3 experiments, each in duplicate
T1 construct: For all of them, we expressed and purified the catalytic domain separately; His-tag; made in house; host or cells: Escherichia coli

[2] = biological target: T2, FES Catalytic Domain+SH2 (Homo sapiens, UniProt P07332); details: 2 µM protein, 10 µM inhibitor, average of 3 experiments, each in duplicate
T2 construct: for 8, we also made a longer version containing one or more additional domains; His-tag; made in house; host or cells: Escherichia coli

[3] = biological target: T3, PAK4 Catalytic Domain (Homo sapiens, UniProt O96013); details: 2 µM protein, 10 µM inhibitor, average of 3 experiments, each in duplicate
T3 construct: For all of them, we expressed and purified the catalytic domain separately; His-tag; made in house; host or cells: Escherichia coli

[4] = biological target: T4, DMPK Catalytic Domain (Homo sapiens, UniProt Q09013); details: 2 µM protein, 10 µM inhibitor, average of 3 experiments, each in duplicate
T4 construct: For all of them, we expressed and purified the catalytic domain separately; His-tag; made in house; host or cells: Escherichia coli
T4 sequence (Q09013 71-339 limits assumed): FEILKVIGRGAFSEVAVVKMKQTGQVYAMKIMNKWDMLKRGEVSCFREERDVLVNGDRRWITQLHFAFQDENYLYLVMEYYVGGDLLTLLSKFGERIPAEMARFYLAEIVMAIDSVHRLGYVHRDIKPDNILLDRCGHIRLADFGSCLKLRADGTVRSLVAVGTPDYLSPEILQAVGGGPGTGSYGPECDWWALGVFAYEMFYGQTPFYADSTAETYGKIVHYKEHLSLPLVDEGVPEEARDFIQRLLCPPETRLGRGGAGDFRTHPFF

[5] = biological target: SRC Catalytic Domain (Homo sapiens, UniProt P12931); parameters: For all of them, we expressed and purified the catalytic domain separately; His-tag; made in house; host or cells: Escherichia coli; details: 2 µM protein, 10 µM inhibitor, average of 3 experiments, each in duplicate
[6] = biological target: T5, PAK7 Catalytic Domain (Homo sapiens, UniProt Q9P286); details: 2 µM protein, 10 µM inhibitor, average of 3 experiments, each in duplicate
T5 construct: For all of them, we expressed and purified the catalytic domain separately; His-tag; made in house; host or cells: Escherichia coli

[7] = biological target: T6, CDK2 + Cyclin A (Homo sapiens, UniProt P24941); details: CDK2 + Cyclin A; 2 µM protein, 10 µM inhibitor; average of 3 experiments, each in duplicate
T6 construct: CDK2 (P24941); 1–299; His-tag; made in house; host or cells: Escherichia coli

[8] = biological target: SRC Catalytic Domain+SH2+SH3 (Homo sapiens, UniProt P12931); details: 2 µM protein, 10 µM inhibitor, average of 3 experiments, each in duplicate
[9] = biological target: T7, CHK2 Catalytic Domain (Homo sapiens, UniProt O96017); details: 2 µM protein, 10 µM inhibitor, average of 3 experiments, each in duplicate
T7 construct: For all of them, we expressed and purified the catalytic domain separately; His-tag; made in house; host or cells: Escherichia coli

[10] = biological target: T8, FES Catalytic Domain (Homo sapiens, UniProt P07332); details: 2 µM protein, 10 µM inhibitor, average of 3 experiments, each in duplicate
T8 construct: For all of them, we expressed and purified the catalytic domain separately; His-tag; made in house; host or cells: Escherichia coli

[11] = biological target: T9, STK3 Catalytic domain+SARAH (Homo sapiens, UniProt Q13188); details: 2 µM protein, 10 µM inhibitor, average of 3 experiments, each in duplicate
T9 construct: for 8, we also made a longer version containing one or more additional domains; His-tag; made in house; host or cells: Escherichia coli
T9 sequence (Q13188 1-491): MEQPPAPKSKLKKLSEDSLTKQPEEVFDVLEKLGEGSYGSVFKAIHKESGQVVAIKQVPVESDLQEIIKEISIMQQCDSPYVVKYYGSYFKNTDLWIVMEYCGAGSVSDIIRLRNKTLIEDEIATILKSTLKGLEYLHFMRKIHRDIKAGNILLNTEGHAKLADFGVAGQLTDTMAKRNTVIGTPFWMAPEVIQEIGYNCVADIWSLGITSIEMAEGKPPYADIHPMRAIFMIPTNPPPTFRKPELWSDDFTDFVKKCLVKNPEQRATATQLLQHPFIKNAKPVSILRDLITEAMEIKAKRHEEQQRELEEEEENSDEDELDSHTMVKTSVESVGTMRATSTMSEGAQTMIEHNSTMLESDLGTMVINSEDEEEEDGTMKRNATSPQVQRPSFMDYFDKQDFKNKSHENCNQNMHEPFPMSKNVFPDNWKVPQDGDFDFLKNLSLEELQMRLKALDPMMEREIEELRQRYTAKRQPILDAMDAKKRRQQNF

[12] = biological target: T10, CDK2 + Cyclin E (Homo sapiens, UniProt P24941); details: CDK2 + Cyclin E; 2 µM protein, 10 µM inhibitor; average of 3 experiments, each in duplicate
T10 construct: CDK2 (P24941); 1–299; His-tag; made in house; host or cells: Escherichia coli

[13] = biological target: T11, AKT3 Catalytic Domain (Homo sapiens, UniProt Q9Y243); details: 2 µM protein, 10 µM inhibitor, average of 3 experiments, each in duplicate
T11 construct: AKT3 (Q9Y243); CD; His-tag; made in house; host or cells: Escherichia coli

[14] = biological target: T12, STK3 Catalytic Domain (Homo sapiens, UniProt Q13188); details: 2 µM protein, 10 µM inhibitor, average of 3 experiments, each in duplicate
T12 construct: For all of them, we expressed and purified the catalytic domain separately; His-tag; made in house; host or cells: Escherichia coli
T12 sequence (Q13188 27-278 limits assumed): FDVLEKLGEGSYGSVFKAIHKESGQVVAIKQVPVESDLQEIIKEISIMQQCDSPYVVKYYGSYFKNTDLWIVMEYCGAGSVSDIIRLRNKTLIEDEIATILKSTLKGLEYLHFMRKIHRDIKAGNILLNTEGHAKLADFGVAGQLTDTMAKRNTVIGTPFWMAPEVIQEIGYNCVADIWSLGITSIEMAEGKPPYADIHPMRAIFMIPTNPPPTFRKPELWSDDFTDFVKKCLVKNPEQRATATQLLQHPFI

[15] = biological target: T13, PAK4 Catalytic Domain+PBD (Homo sapiens, UniProt O96013); details: 2 µM protein, 10 µM inhibitor, average of 3 experiments, each in duplicate
T13 construct: for 8, we also made a longer version containing one or more additional domains; His-tag; made in house; host or cells: Escherichia coli
T13 sequence (O96013 whole entry, the tested form may be a part): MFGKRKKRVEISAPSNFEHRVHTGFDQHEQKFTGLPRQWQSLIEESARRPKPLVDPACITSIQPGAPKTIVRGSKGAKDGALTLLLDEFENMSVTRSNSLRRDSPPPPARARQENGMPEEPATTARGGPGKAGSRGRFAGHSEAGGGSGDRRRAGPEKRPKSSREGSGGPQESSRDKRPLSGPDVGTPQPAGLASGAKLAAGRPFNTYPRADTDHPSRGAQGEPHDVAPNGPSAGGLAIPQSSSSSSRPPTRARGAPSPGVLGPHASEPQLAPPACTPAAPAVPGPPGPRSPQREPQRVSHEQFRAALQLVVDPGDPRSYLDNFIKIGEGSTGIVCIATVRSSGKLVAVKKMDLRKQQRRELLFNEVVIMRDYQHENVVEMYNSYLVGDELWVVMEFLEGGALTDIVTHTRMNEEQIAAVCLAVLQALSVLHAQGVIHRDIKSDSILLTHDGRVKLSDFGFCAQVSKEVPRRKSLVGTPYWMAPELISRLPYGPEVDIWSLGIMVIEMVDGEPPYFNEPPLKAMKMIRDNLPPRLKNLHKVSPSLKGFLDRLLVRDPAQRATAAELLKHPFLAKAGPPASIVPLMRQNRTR

Chain of SRC Catalytic Domain+SH2+SH3 (P12931 84-523 limits assumed): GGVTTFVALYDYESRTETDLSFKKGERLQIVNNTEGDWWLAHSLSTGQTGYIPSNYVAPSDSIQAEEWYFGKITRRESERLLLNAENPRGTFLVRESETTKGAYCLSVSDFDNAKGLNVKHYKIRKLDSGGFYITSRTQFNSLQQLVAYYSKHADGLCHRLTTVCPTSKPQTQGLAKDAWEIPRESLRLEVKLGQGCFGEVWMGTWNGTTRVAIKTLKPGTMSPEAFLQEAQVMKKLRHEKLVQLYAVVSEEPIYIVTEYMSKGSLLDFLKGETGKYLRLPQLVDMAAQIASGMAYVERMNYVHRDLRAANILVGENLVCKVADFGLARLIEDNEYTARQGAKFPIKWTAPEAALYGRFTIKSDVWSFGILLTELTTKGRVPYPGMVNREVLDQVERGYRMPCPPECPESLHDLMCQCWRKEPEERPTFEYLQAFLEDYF
T5 sequence (Q9P286 449-700 limits assumed): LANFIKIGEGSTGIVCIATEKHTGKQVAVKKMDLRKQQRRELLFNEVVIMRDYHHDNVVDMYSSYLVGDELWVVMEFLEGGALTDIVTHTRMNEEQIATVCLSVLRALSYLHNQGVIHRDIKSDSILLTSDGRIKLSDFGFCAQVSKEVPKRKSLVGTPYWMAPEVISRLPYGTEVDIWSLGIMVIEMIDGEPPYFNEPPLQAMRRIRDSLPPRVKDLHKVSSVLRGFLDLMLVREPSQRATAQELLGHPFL
Chain of SRC Catalytic Domain (P12931 270-523 limits assumed): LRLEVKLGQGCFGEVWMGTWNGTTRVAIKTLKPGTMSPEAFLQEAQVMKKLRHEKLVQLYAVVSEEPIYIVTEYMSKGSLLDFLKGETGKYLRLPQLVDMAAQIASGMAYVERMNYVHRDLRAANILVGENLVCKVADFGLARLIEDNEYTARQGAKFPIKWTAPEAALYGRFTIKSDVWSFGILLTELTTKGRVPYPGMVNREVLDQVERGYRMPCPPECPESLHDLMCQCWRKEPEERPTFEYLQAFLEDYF
T2 sequence (P07332 448-822 limits assumed): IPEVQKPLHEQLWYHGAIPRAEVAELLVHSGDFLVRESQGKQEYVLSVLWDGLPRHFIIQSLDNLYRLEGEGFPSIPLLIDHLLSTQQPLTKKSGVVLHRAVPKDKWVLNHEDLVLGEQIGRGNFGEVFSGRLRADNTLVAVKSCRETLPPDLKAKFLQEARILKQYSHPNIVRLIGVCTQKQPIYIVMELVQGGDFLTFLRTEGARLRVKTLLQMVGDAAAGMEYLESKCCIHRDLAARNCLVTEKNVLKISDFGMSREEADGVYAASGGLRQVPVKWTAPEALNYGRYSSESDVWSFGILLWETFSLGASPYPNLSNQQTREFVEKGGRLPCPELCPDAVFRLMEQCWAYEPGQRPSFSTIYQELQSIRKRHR
T1 sequence (Q14289 425-683 limits assumed): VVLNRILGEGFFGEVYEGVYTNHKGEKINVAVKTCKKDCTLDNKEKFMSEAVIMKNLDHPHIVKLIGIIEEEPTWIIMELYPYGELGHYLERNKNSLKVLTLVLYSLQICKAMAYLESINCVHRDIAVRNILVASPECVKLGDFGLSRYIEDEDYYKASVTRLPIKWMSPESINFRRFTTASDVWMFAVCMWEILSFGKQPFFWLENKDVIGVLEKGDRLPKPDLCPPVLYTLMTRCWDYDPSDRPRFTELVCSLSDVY
T11 sequence (Q9Y243 122-479): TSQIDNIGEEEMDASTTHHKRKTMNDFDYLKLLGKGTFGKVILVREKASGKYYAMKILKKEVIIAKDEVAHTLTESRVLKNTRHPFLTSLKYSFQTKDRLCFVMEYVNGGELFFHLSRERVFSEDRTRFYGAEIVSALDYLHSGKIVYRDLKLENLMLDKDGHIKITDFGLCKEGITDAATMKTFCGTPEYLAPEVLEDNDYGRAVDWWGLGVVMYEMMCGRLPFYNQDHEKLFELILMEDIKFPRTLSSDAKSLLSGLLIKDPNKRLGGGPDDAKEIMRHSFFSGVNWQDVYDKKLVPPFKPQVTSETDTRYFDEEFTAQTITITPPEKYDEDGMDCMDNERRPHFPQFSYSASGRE
T8 sequence (P07332 561-822 limits assumed): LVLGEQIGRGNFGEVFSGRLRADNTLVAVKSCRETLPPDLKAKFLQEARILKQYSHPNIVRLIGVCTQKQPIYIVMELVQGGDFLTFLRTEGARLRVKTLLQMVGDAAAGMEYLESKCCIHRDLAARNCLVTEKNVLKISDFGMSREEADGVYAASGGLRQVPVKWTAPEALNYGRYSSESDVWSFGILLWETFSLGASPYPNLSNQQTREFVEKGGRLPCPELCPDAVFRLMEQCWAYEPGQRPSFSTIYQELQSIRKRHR
T3 sequence (O96013 321-572 limits assumed): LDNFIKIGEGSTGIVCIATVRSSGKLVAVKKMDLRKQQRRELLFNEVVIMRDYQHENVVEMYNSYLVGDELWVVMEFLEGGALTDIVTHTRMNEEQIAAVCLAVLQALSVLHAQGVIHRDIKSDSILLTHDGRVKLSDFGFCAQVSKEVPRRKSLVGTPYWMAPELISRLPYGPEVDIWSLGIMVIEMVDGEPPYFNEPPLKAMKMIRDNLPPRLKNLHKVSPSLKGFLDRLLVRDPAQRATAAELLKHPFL
T7 sequence (O96017 220-486 limits assumed): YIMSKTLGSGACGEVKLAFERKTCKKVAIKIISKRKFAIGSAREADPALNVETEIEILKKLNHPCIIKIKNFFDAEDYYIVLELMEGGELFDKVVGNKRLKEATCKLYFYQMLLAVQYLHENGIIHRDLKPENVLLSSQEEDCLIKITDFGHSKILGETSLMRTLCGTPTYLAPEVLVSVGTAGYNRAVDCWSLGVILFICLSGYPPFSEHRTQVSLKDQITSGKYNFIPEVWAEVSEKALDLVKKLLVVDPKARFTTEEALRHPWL

## NC(=O)Nc1sc(-c2ccc(F)cc2)cc1C(N)=O [IKK-2 Inhibitor IV]
[1]
  Melting temperature (Tm) shift: 1.2 degrees Celcius
[2]
  Melting temperature (Tm) shift: 0.5 degrees Celcius
[3]
  Melting temperature (Tm) shift: 1.5 degrees Celcius
[4]
  Melting temperature (Tm) shift: 1.8 degrees Celcius
[5]
  Melting temperature (Tm) shift: 1.2 degrees Celcius
[6]
  Melting temperature (Tm) shift: 1.3 degrees Celcius
[7]
  Melting temperature (Tm) shift: 0.7 degrees Celcius
[8]
  Melting temperature (Tm) shift: 1.0 degrees Celcius
[9]
  Melting temperature (Tm) shift: 3.6 degrees Celcius
[10]
  Melting temperature (Tm) shift: 1.5 degrees Celcius
[11]
  Melting temperature (Tm) shift: 1.6 degrees Celcius
[12]
  Melting temperature (Tm) shift: 0.4 degrees Celcius
[13]
  Melting temperature (Tm) shift: 0.1 degrees Celcius
[14]
  Melting temperature (Tm) shift: 2.8 degrees Celcius
[15]
  Melting temperature (Tm) shift: 2.4 degrees Celcius

## O=C1NC(=O)C(c2c[nH]c3ccccc23)=C1c1c[nH]c2ccccc12 [Bisindolylmaleimide IV]
[1]
  Melting temperature (Tm) shift: 0.1 degrees Celcius
[2]
  Melting temperature (Tm) shift: 0.9 degrees Celcius
[3]
  Melting temperature (Tm) shift: 0.4 degrees Celcius
[4]
  Melting temperature (Tm) shift: 2.7 degrees Celcius
[5]
  Melting temperature (Tm) shift: 0.3 degrees Celcius
[6]
  Melting temperature (Tm) shift: 0.1 degrees Celcius
[7]
  Melting temperature (Tm) shift: 0.9 degrees Celcius
[8]
  Melting temperature (Tm) shift: 0.0 degrees Celcius
[9]
  Melting temperature (Tm) shift: 4.1 degrees Celcius
[10]
  Melting temperature (Tm) shift: 0.5 degrees Celcius
[11]
  Melting temperature (Tm) shift: 2.0 degrees Celcius
[12]
  Melting temperature (Tm) shift: 0.7 degrees Celcius
[13]
  Melting temperature (Tm) shift: 0.0 degrees Celcius
[14]
  Melting temperature (Tm) shift: 0.9 degrees Celcius
[15]
  Melting temperature (Tm) shift: 0.0 degrees Celcius

## NC(=O)Nc1sc(-c2ccccc2)cc1C(N)=O [IKK-2 Inhibitor VI]
[1]
  Melting temperature (Tm) shift: 1.4 degrees Celcius
[2]
  Melting temperature (Tm) shift: 0.7 degrees Celcius
[3]
  Melting temperature (Tm) shift: 1.3 degrees Celcius
[4]
  Melting temperature (Tm) shift: 1.4 degrees Celcius
[5]
  Melting temperature (Tm) shift: 1.3 degrees Celcius
[6]
  Melting temperature (Tm) shift: 1.3 degrees Celcius
[7]
  Melting temperature (Tm) shift: 0.8 degrees Celcius
[8]
  Melting temperature (Tm) shift: 1.1 degrees Celcius
[9]
  Melting temperature (Tm) shift: 3.6 degrees Celcius
[10]
  Melting temperature (Tm) shift: 1.8 degrees Celcius
[11]
  Melting temperature (Tm) shift: 2.0 degrees Celcius
[12]
  Melting temperature (Tm) shift: 0.2 degrees Celcius
[13]
  Melting temperature (Tm) shift: 0.0 degrees Celcius
[14]
  Melting temperature (Tm) shift: 2.4 degrees Celcius
[15]
  Melting temperature (Tm) shift: 2.5 degrees Celcius

## Cc1ccc([N+](=O)[O-])cc1S(=O)(=O)N(C)N=Cc1cnc2ccc(Br)cn12.Cl.O.O [PI 3-Kα Inhibitor VIII]
[1]
  Melting temperature (Tm) shift: 1.6 degrees Celcius
[2]
  Melting temperature (Tm) shift: 1.4 degrees Celcius
[3]
  Melting temperature (Tm) shift: 3.0 degrees Celcius
[4]
  Melting temperature (Tm) shift: 3.1 degrees Celcius
[5]
  Melting temperature (Tm) shift: 0.7 degrees Celcius
[6]
  Melting temperature (Tm) shift: 1.8 degrees Celcius
[7]
  Melting temperature (Tm) shift: 4.2 degrees Celcius
[8]
  Melting temperature (Tm) shift: 0.9 degrees Celcius
[9]
  Melting temperature (Tm) shift: 2.5 degrees Celcius
[10]
  Melting temperature (Tm) shift: 3.1 degrees Celcius
[11]
  Melting temperature (Tm) shift: 4.2 degrees Celcius
[12]
  Melting temperature (Tm) shift: 0.7 degrees Celcius
[13]
  Melting temperature (Tm) shift: 1.3 degrees Celcius
[14]
  Melting temperature (Tm) shift: 2.7 degrees Celcius
[15]
  Melting temperature (Tm) shift: 2.1 degrees Celcius

## CN(C)CCCn1cc(C2=C(c3c[nH]c4ccccc34)C(=O)NC2=O)c2ccccc21 [Bisindolylmaleimide I]
[1]
  Melting temperature (Tm) shift: 0.5 degrees Celcius
[2]
  Melting temperature (Tm) shift: 0.6 degrees Celcius
[3]
  Melting temperature (Tm) shift: 1.0 degrees Celcius
[4]
  Melting temperature (Tm) shift: 3.9 degrees Celcius
[5]
  Melting temperature (Tm) shift: 0.4 degrees Celcius
[6]
  Melting temperature (Tm) shift: 0.6 degrees Celcius
[7]
  Melting temperature (Tm) shift: 1.8 degrees Celcius
[8]
  Melting temperature (Tm) shift: 0.0 degrees Celcius
[9]
  Melting temperature (Tm) shift: 4.6 degrees Celcius
[10]
  Melting temperature (Tm) shift: 0.6 degrees Celcius
[11]
  Melting temperature (Tm) shift: 2.9 degrees Celcius
[12]
  Melting temperature (Tm) shift: 0.9 degrees Celcius
[13]
  Melting temperature (Tm) shift: 0.4 degrees Celcius
[14]
  Melting temperature (Tm) shift: 1.0 degrees Celcius
[15]
  Melting temperature (Tm) shift: 0.6 degrees Celcius

## O=C1Cc2c([nH]c3ccc([N+](=O)[O-])cc23)-c2ccccc2N1 [Alsterpaullone]
[1]
  Melting temperature (Tm) shift: 0.4 degrees Celcius
[2]
  Melting temperature (Tm) shift: 0.1 degrees Celcius
[3]
  Melting temperature (Tm) shift: 0.2 degrees Celcius
[4]
  Melting temperature (Tm) shift: 1.8 degrees Celcius
[5]
  Melting temperature (Tm) shift: 0.0 degrees Celcius
[6]
  Melting temperature (Tm) shift: 0.3 degrees Celcius
[7]
  Melting temperature (Tm) shift: 0.4 degrees Celcius
[8]
  Melting temperature (Tm) shift: 0.2 degrees Celcius
[9]
  Melting temperature (Tm) shift: 0.9 degrees Celcius
[10]
  Melting temperature (Tm) shift: 0.3 degrees Celcius
[11]
  Melting temperature (Tm) shift: 0.7 degrees Celcius
[12]
  Melting temperature (Tm) shift: 0.2 degrees Celcius
[13]
  Melting temperature (Tm) shift: 0.1 degrees Celcius
[14]
  Melting temperature (Tm) shift: 0.3 degrees Celcius
[15]
  Melting temperature (Tm) shift: 0.3 degrees Celcius
